The values that follow come from patent publication US11643428B2, “Therapeutic drug for neurodegenerative disease and application thereof” (SHANGHAI PHARMACEUTICALS HOLDING CO., LTD., priority 2018, dated 2023).

Structures are written as SMILES.

Test [1] deals with mouse BV-2 cell line. Description: Expression of inflammatory factors in LPS-treated BV-2 cells by QPCR. The test is classed as cell-based. The following applies: PL201 10, 30, 100 μM, LPS 300 ng/ml, 24 hours. The protocol:
Neuroinflammation in the brain of AD is one of the causes of cognitive decline. Microglial cells are the key cells that mediate neuroinflammation. In this example, the inventors have explored whether PL201 has the effect of inhibiting neuroinflammation by detecting the expressions of inflammatory factors on mouse BV-2 cell line.
BV-2 cells were cultured in DMEM, plated to 24 well plates and cultured for 24 hours, then PL201 (0, 10, 30, and 100 μM) and LPS (300 ng/ml) were added. After co-incubation for 24 hours, Trizol was used to extract RNA and the expressions of related inflammatory factors were detected by QPCR.
Mouse BV-2 cells were cultured in DMEM, plated to 24 well plates and cultured for 24 hours, then PL202 (0, 30, 100, and 300 μM) and LPS (300 ng/ml) were added. After co-incubation for 24 hours, Trizol was used to extract RNA and the expressions of related inflammatory factors were detected by QPCR.

The subject of test [2] is AD mice. Briefly: Neurogenesis in vivo, BrdU/NeuN staining of hippocampus. The following applies: 10 mg/kg intragastrically once daily, 90 days, vs control group. Also noted: species or system mouse. The method, then:
The inventors conducted PL201 administration experiments on AD mice (5-6 months aged AD mice were selected). Each mouse was intragastrically administrated 100 μl PL201, and the dosage was 10 mg/kg mouse body weight. Moreover, mice in the control group were administrated 100 μl water once daily for 90 days, and from Day 60 were intraperitoneally injected with 5-bromo-2′-deoxyuridine (BrdU) of 50 mg/kg mouse body weight once daily for 7 days. After 90 days of administration, the mice were perfused with PFA after anesthesia, and the whole brain was taken for further experiments.
For the obtained whole brain, a mature neuron marker NeuN in the hippocampus of mice was detected: The brain of mouse which had been perfused with PFA was then fixed in 4% PFA for 24 hours, and then kept for 72 hours in 30% sucrose for cryoprotection. After the treatment was completed, the region of cerebellum was removed, and the olfactory bulb was placed upright on the filter paper and frozen at −80° C. for at least 24 hours. The frozen sectioning was performed vertically and longitudinally with a thickness of 30 μm. A total of 8×9×=72 slices (2.16 mm) including DG portion were cut and arranged in slicing order. One slice was taken from every 8 slices and combined into a group of brain slices for staining. […] The number of single or double positive cells was analyzed by Image Pro Plus software. […]

The subject of test [3] is AMPK phosphorylation in human neural stem cells. Description: AMPK phosphorylation level by western blot. The test is classed as cell-based. Conditions: Aβ 5 μM pre-treatment 30 minutes, PL201 30 PM, 72 hours. The method, then: The changes of mitochondrial function are closely related to the regulation of metabolism signaling including AMPK, which is also widely considered to be closely related to the pathogenesis of AD. In this example, the inventors have explored whether PL201 has an effect on metabolism signaling by detecting the level of AMPK phosphorylation in human neural stem cells via western blot.
Human neural stem cells (3 L) were cultured in DMEM/F12 (containing N2/B27 and 10 ng/ml bFGF), plated to 12 well plates and cultured for 24 hours, then Aβ (5 μM) was added to pre-treat the cells for 30 minutes, and then PL201 ([…]) was added. After co-incubation for 72 hours, the cells were washed with PBS and lysed with Laemmli's sample buffer, then SDS PAGE electrophoresis was performed to detect associated protein bands with rabbit anti-phospo-AMPK and total AMPK antibody.
(In general: In western blotting, separated proteins are transferred to a membrane and probed.)

For test [4], the system named is Human neural stem cells. Briefly: Neural stem cell proliferation under Aβ by EdU incorporation. The test is classed as cell-based. Conditions: Aβ 5 μM pre-treatment 30 minutes, PL201 30 μM, 72 hours. The method, then:
As the main pathogenic protein of AD, Aβ inhibits neural stem cell proliferation. In this example, the inventors detected the levels of human neural stem cell proliferation by EdU incorporation, and tested whether PL201 can alleviate the inhibition effect of Aβ on the proliferation of neural stem cells.
Human neural stem cells (3 L) were cultured in DMEM/F12 (containing N2/B27 and 10 ng/ml bFGF), plated to 96 well plates and incubated for 24 hours, then Aβ (5 μM) was added to pre-treat the cells for 30 minutes, and then PL201 (30 μM) was added. After co-incubation for 72 hours, the proliferation level of neural stem cells was detected by EdU staining.

Test [5] has as its system neuroblastoma cells SK-N-SH. Description: Total Aβ in supernatant of SK-N-SH cells by ELISA. The test is classed as cell-based. The following applies: 30, 100, 300 μM, 24 hours. The protocol: Culture of neuroblastoma cells SK-N-SH and Aβ detection: SK-N-SH cells were cultured in DMEM, plated to 24 well plates and cultured for 24 hours, then PL201 (0, 30, 100, and 300 μM) was added. After co-incubation for 24 hours, the protein level of total Aβ in supernatant was detected by ELISA.
Culture of neuroblastoma cells SK-N-SH and Aβ detection: SK-N-SH cells were cultured in DMEM, plated to 24 well plates and cultured for 24 hours, then PL202 (0, 30, and 100 μM) was added. After co-incubation for 24 hours, protein level of total Aβ in supernatant was detected by ELISA.
Culture of neuroblastoma cells SK-N-SH and Aβ detection: SK-N-SH cells were cultured in DMEM, plated to 24 well plates and cultured for 24 hours, then PL171 (300 μM) was added. After co-incubation for 24 hours, protein level of total Aβ in supernatant was detected by ELISA.
Culture of neuroblastoma cells SK-N-SH and Aβ detection: SK-N-SH cells were cultured in DMEM, plated to 24 well plates and cultured for 24 hours, then PL172 (300 μM) was added. After co-incubation for 24 hours, protein level of total Aβ in supernatant was detected by ELISA.
In general terms: ELISA stands for enzyme-linked immunosorbent assay.

As to `COc1cc(/C=C/C(=O)OC2OC(C)C(O)C(O)C2O)ccc1O` [PL201, (α-L-rhamnopyranosyl) ferulic acid ester], in test [1], the “expression of inflammatory factor IL-1β” value is given as “significantly inhibit” and the “expression of inflammatory factor TNFα” value is given as “significantly inhibit”. Moreover, in test [2], the “BrdU/NeuN double-positive newborn neurons in hippocampus” value is listed as “more BrdU/NeuN double-positive newborn neurons”. The AMPK phosphorylation level entry in test [3] is “reduced the extent of this decline”. The “proliferation level of neural stem cells (EdU staining)” value in test [4] was “significantly alleviate the inhibitory effect of Aβ”. Further, in test [5], the “Aβ production (total Aβ in supernatant)” value is listed as “significantly inhibited”.
